Laboratory results: ChEMBL document CHEMBL1128187, “1 alpha,25-dihydroxyvitamin D3 analogs featuring aromatic and heteroaromatic rings: design, synthesis, and preliminary biological testing” (1995)

Tests used:
Format in all cases: functional
Rattus norvegicus [1] = species: Rattus norvegicus; experiment: Patch clamp determination of calcium current in rat Osteosarcoma cells at 0.5 nM
Rattus norvegicus [2] = species: Rattus norvegicus; experiment: Patch clamp determination of calcium current in rat Osteosarcoma cells at 5.0 nM
Rattus norvegicus [3] = species: Rattus norvegicus; experiment: Patch clamp determination of calcium current in rat Osteosarcoma cells at 50.0 nM

Compound | Ca2+ current (Rattus norvegicus [1]) | Ca2+ current (Rattus norvegicus [2]) | Ca2+ current (Rattus norvegicus [3])
C[C@H](CCCC(C)(C)O)[C@H]1CC[C@H]2C(c3ccc(CO)c(CO)c3)=CCC[C@]12C | -0.08 mV | 1.45 mV | 7.03 mV
C[C@@H](COCCCC(C)(C)O)[C@H]1CC[C@H]2C(c3ccc(CO)c(CO)c3)=CCC[C@]12C | 0.02 mV | 0.15 mV | 0.63 mV
C=C1/C(=C\C=C2/CCC[C@]3(C)[C@@H]([C@H](C)CCCC(C)(C)O)CC[C@@H]23)C[C@@H](O)C[C@@H]1O [CALCITRIOL] | 5.73 mV | 9.79 mV | 10.2 mV
